Test system: Uncinula necator
Test: Fungicidal test, Uncinula necator (UNCINE) on vines, PRCO
Type: in vivo
Settings: METHOD 2 (unbanded)

SMILES | UNCINE 1 d Prot/Foir PRCO
Cc1nsc(NC(=O)Cc2ccc3oc(C(C)(C)CCl)nc3c2)c1Cl [98(A3)] | 100
CSCCc1nc2cc(CC(=O)Nc3snc(C)c3Cl)ccc2o1 [172(A3)] | 36
Cc1nsc(NC(=O)Cc2ccc3oc(NC(C)(C)C)nc3c2)c1Cl [183(A3)] | 98
Cc1nsc(NC(=O)Cc2ccc3oc(N4CCOCC4)nc3c2)c1Cl [191(A3)] | 100
COc1nc2cc(CC(=O)Nc3snc(C)c3Cl)ccc2o1 [203(A3)] | 69
CCOc1nc2cc(CC(=O)Nc3snc(C)c3Cl)ccc2o1 [204(A3)] | 81
COC(=O)CSc1nc2cc(CC(=O)Nc3snc(C)c3Cl)ccc2o1 [229(A3)] | −9
Cc1nsc(NC(=O)Cc2ccc3oc(-c4sccc4Cl)nc3c2)c1Cl [331(A3)] | 76

Test system: Septoria nodorum
Test: Fungicidal test, Septoria nodorum (LEPTNO) on wheat, PRCO
Type: in vivo
Settings: METHOD 2 (unbanded)

SMILES | LEPTNO 1 d Prot/Foir PRCO
Cc1nsc(NC(=O)Cc2ccc3oc(C(C)(C)CCl)nc3c2)c1Cl [98(A3)] | 30
CSCCc1nc2cc(CC(=O)Nc3snc(C)c3Cl)ccc2o1 [172(A3)] | 10
Cc1nsc(NC(=O)Cc2ccc3oc(NC(C)(C)C)nc3c2)c1Cl [183(A3)] | 19
Cc1nsc(NC(=O)Cc2ccc3oc(N4CCOCC4)nc3c2)c1Cl [191(A3)] | 36
COc1nc2cc(CC(=O)Nc3snc(C)c3Cl)ccc2o1 [203(A3)] | −3
CCOc1nc2cc(CC(=O)Nc3snc(C)c3Cl)ccc2o1 [204(A3)] | 67
COC(=O)CSc1nc2cc(CC(=O)Nc3snc(C)c3Cl)ccc2o1 [229(A3)] | 2
Cc1nsc(NC(=O)Cc2ccc3oc(-c4sccc4Cl)nc3c2)c1Cl [331(A3)] | 17

Test system: Venturia inaequalis
Test: Fungicidal test, Venturia inaequalis (VENTIN) on apples, PRCO
Type: in vivo
Settings: METHOD 2 (unbanded)

SMILES | VENTIN 1 d Prot/Foir PRCO
Cc1nsc(NC(=O)Cc2ccc3oc(C(C)(C)CCl)nc3c2)c1Cl [98(A3)] | 96
CSCCc1nc2cc(CC(=O)Nc3snc(C)c3Cl)ccc2o1 [172(A3)] | 69
Cc1nsc(NC(=O)Cc2ccc3oc(NC(C)(C)C)nc3c2)c1Cl [183(A3)] | 98
Cc1nsc(NC(=O)Cc2ccc3oc(N4CCOCC4)nc3c2)c1Cl [191(A3)] | 10
COc1nc2cc(CC(=O)Nc3snc(C)c3Cl)ccc2o1 [203(A3)] | 65
CCOc1nc2cc(CC(=O)Nc3snc(C)c3Cl)ccc2o1 [204(A3)] | 22
COC(=O)CSc1nc2cc(CC(=O)Nc3snc(C)c3Cl)ccc2o1 [229(A3)] | 10
Cc1nsc(NC(=O)Cc2ccc3oc(-c4sccc4Cl)nc3c2)c1Cl [331(A3)] | 5

Test system: Puccinia recondita
Test: Fungicidal test, Puccinia recondita (PUCCRT) on wheat, PRCO
Type: in vivo
Settings: METHOD 2 (unbanded)

SMILES | PUCCRT 1 d Prot/Foir PRCO
Cc1nsc(NC(=O)Cc2ccc3oc(C(C)(C)CCl)nc3c2)c1Cl [98(A3)] | 98
CSCCc1nc2cc(CC(=O)Nc3snc(C)c3Cl)ccc2o1 [172(A3)] | 96
Cc1nsc(NC(=O)Cc2ccc3oc(NC(C)(C)C)nc3c2)c1Cl [183(A3)] | 99
Cc1nsc(NC(=O)Cc2ccc3oc(N4CCOCC4)nc3c2)c1Cl [191(A3)] | 99
COc1nc2cc(CC(=O)Nc3snc(C)c3Cl)ccc2o1 [203(A3)] | 100
CCOc1nc2cc(CC(=O)Nc3snc(C)c3Cl)ccc2o1 [204(A3)] | 99
COC(=O)CSc1nc2cc(CC(=O)Nc3snc(C)c3Cl)ccc2o1 [229(A3)] | 6
Cc1nsc(NC(=O)Cc2ccc3oc(-c4sccc4Cl)nc3c2)c1Cl [331(A3)] | 95

Test system: Plasmopara viticola
Test: Fungicidal test, Plasmopara viticola (PLASVI) on vines, PRCO
Type: in vivo
Settings: METHOD 2 (unbanded)

SMILES | PLASVI 1 d Prot/Foir PRCO
Cc1nsc(NC(=O)Cc2ccc3oc(C(C)(C)CCl)nc3c2)c1Cl [98(A3)] | 99
CSCCc1nc2cc(CC(=O)Nc3snc(C)c3Cl)ccc2o1 [172(A3)] | 44
Cc1nsc(NC(=O)Cc2ccc3oc(-c4sccc4Cl)nc3c2)c1Cl [331(A3)] | 49

Test system: Musca domestica
Test: not given
Settings: 500 ppm by weight; knockdown assessed 15 minutes after treatment

SMILES | MUSCDO AC = Musca domestica (knockdown), score
Cc1nsc(NC(=O)Cc2ccc3oc(C(C)(C)CCl)nc3c2)c1Cl [98(A3)] | 5 (5 indicates 40-79% mortality)
CSCCc1nc2cc(CC(=O)Nc3snc(C)c3Cl)ccc2o1 [172(A3)] | 5 (5 indicates 40-79% mortality)
Cc1nsc(NC(=O)Cc2ccc3oc(NC(C)(C)C)nc3c2)c1Cl [183(A3)] | 0 (0 indicates less than 40% mortality)
Cc1nsc(NC(=O)Cc2ccc3oc(N4CCOCC4)nc3c2)c1Cl [191(A3)] | 5 (5 indicates 40-79% mortality)
COc1nc2cc(CC(=O)Nc3snc(C)c3Cl)ccc2o1 [203(A3)] | 9 (9 indicates 80-100% mortality)
CCOc1nc2cc(CC(=O)Nc3snc(C)c3Cl)ccc2o1 [204(A3)] | 9 (9 indicates 80-100% mortality)
COC(=O)CSc1nc2cc(CC(=O)Nc3snc(C)c3Cl)ccc2o1 [229(A3)] | 0 (0 indicates less than 40% mortality)
Cc1nsc(NC(=O)Cc2ccc3oc(-c4sccc4Cl)nc3c2)c1Cl [331(A3)] | 0 (0 indicates less than 40% mortality)

Test system: Erysiphe graminis f.sp. tritici
Test: Fungicidal test, Erysiphe graminis f.sp. tritici (ERYSGT) on wheat, PRCO
Type: in vivo
Settings: 1 d Prot/Foir; METHOD 2 (unbanded)

SMILES | ERYSGT 1 d Prot/Foir PRCO
Cc1nsc(NC(=O)Cc2ccc3oc(C(C)(C)CCl)nc3c2)c1Cl [98(A3)] | 98
CSCCc1nc2cc(CC(=O)Nc3snc(C)c3Cl)ccc2o1 [172(A3)] | 40
Cc1nsc(NC(=O)Cc2ccc3oc(NC(C)(C)C)nc3c2)c1Cl [183(A3)] | 99
Cc1nsc(NC(=O)Cc2ccc3oc(N4CCOCC4)nc3c2)c1Cl [191(A3)] | 94
COc1nc2cc(CC(=O)Nc3snc(C)c3Cl)ccc2o1 [203(A3)] | 98
CCOc1nc2cc(CC(=O)Nc3snc(C)c3Cl)ccc2o1 [204(A3)] | 87
COC(=O)CSc1nc2cc(CC(=O)Nc3snc(C)c3Cl)ccc2o1 [229(A3)] | 21
Cc1nsc(NC(=O)Cc2ccc3oc(-c4sccc4Cl)nc3c2)c1Cl [331(A3)] | 33

Test system: Pyricularia oryzae
Test: not given
Type: in vivo
Settings: METHOD 2 (unbanded)

SMILES | PYRIOR 1 d Prot/Foir PRCO
Cc1nsc(NC(=O)Cc2ccc3oc(C(C)(C)CCl)nc3c2)c1Cl [98(A3)] | 81
CSCCc1nc2cc(CC(=O)Nc3snc(C)c3Cl)ccc2o1 [172(A3)] | 19
Cc1nsc(NC(=O)Cc2ccc3oc(NC(C)(C)C)nc3c2)c1Cl [183(A3)] | 99
Cc1nsc(NC(=O)Cc2ccc3oc(N4CCOCC4)nc3c2)c1Cl [191(A3)] | 92
COc1nc2cc(CC(=O)Nc3snc(C)c3Cl)ccc2o1 [203(A3)] | 96
CCOc1nc2cc(CC(=O)Nc3snc(C)c3Cl)ccc2o1 [204(A3)] | 96
COC(=O)CSc1nc2cc(CC(=O)Nc3snc(C)c3Cl)ccc2o1 [229(A3)] | 55
Cc1nsc(NC(=O)Cc2ccc3oc(-c4sccc4Cl)nc3c2)c1Cl [331(A3)] | 81

Test system: Phytophthora infestans lycopersici
Test: not given
Type: in vivo
Settings: METHOD 2 (unbanded)

SMILES | PHYTIN 1 d Prot/Foir PRCO
Cc1nsc(NC(=O)Cc2ccc3oc(C(C)(C)CCl)nc3c2)c1Cl [98(A3)] | 100
CSCCc1nc2cc(CC(=O)Nc3snc(C)c3Cl)ccc2o1 [172(A3)] | 100
Cc1nsc(NC(=O)Cc2ccc3oc(NC(C)(C)C)nc3c2)c1Cl [183(A3)] | 100
Cc1nsc(NC(=O)Cc2ccc3oc(N4CCOCC4)nc3c2)c1Cl [191(A3)] | 92
COc1nc2cc(CC(=O)Nc3snc(C)c3Cl)ccc2o1 [203(A3)] | 85
CCOc1nc2cc(CC(=O)Nc3snc(C)c3Cl)ccc2o1 [204(A3)] | 100
COC(=O)CSc1nc2cc(CC(=O)Nc3snc(C)c3Cl)ccc2o1 [229(A3)] | 92

Test system: Meloidogyne incognita
Test: Nematode test, J2 infective juveniles of Meloidogyne incognita, mortality
Settings: 12.5 ppm; J2 infective juveniles suspended in solution; mortality after three days
Protocol: The activities of individual compounds of formula (I) were determined using a variety of pests. With the exception of nematodes, the pests were treated with a liquid composition containing 500 parts per million (ppm) by weight of a compound unless otherwise stated. Each composition was made by dissolving the compound in an acetone and ethanol (50:50 by volume) mixture and diluting the solution with water containing 0.05% by volume of a wetting agent, SYNPERONIC NP8, until the liquid composition contained the required concentration of the compound.
The test procedure for nematodes involved dissolving the compound in an acetone and ethanol (50:50 by volume) mixture and diluting the solution with water to obtain a final concentration of the compound of 12.5 ppm. J2 infective juveniles of Meloidogyne incognita were suspended in the solution in a glass vial and mortality assessed after a period of three days.

SMILES | MELGIN = Meloidogyne incognita, grading of mortality (score)
Cc1nsc(NC(=O)Cc2ccc3oc(C(C)(C)CCl)nc3c2)c1Cl [98(A3)] | 0 (0 indicates less than 40% mortality)
CSCCc1nc2cc(CC(=O)Nc3snc(C)c3Cl)ccc2o1 [172(A3)] | 5 (5 indicates 40-79% mortality)
Cc1nsc(NC(=O)Cc2ccc3oc(NC(C)(C)C)nc3c2)c1Cl [183(A3)] | 0 (0 indicates less than 40% mortality)
Cc1nsc(NC(=O)Cc2ccc3oc(N4CCOCC4)nc3c2)c1Cl [191(A3)] | 9 (9 indicates 80-100% mortality)
COc1nc2cc(CC(=O)Nc3snc(C)c3Cl)ccc2o1 [203(A3)] | 0 (0 indicates less than 40% mortality)
CCOc1nc2cc(CC(=O)Nc3snc(C)c3Cl)ccc2o1 [204(A3)] | 0 (0 indicates less than 40% mortality)
COC(=O)CSc1nc2cc(CC(=O)Nc3snc(C)c3Cl)ccc2o1 [229(A3)] | 0 (0 indicates less than 40% mortality)

From US6544989B2, “Benzazoles: benzoxazole, benzthiazole and benzimidazole derivatives” (Syngenta Limited, priority 1998, dated 2003)
